Data as given in US20260262643A1, “HERBICIDAL BENZOXAZINES” (FMC CORPORATION, priority 2022, published 2026).

Experiments:
blackgrass [1] = experiment: Test A preemergence; type: in vivo, Alopecurus myosuroides; settings: 1000 g ai/ha, 0 to 100 scale (0 no effect, 100 complete control), 10 days; for pest or weed control at 1000 g/ha: Alopecurus myosuroides, pre-emergence, 240 h, read-out: Plant response rating, Blackgrass
Text: (§1) Seeds of plant species selected from barnyardgrass (Echinochloa crusgalli), blackgrass (Alopecurus myosuroides), corn (Zea mays), foxtail, giant (giant foxtail, Setaria faberi), goosegrass (Eleusine indica), kochia (Bassia scoparia), oat, wild (wild oat, Avena fatua), pigweed, palmer (palmer amaranth, palmer pigweed, Amaranthus palmeri), Pigweed, Redroot (redroot pigweed, Amaranthus retroflexus), ragweed (common ragweed, Ambrosia artemisiifolia), ryegrass, Italian (italian ryegrass, Lolium multiflorum), soybean (Glycine max), and wheat (Triticum aestivum) were planted into a blend of loam soil and sand and treated preemergence with a directed soil spray using test chemicals formulated in a non-phytotoxic solvent mixture which included a surfactant. At the same time, plants selected from these crops and weed species and also galium (catchweed bedstraw, Galium aparine) and horseweed (Erigeron canadensis) were planted in pots containing the same blend of loam soil and sand and treated with postemergence applications of test chemicals formulated in the same manner. Plants ranged in height from 2 to 10 cm and were in the one- to two-leaf stage for the postemergence treatment. Treated plants and untreated controls were maintained in a greenhouse for 10 days, after which time all treated plants were compared to untreated controls and visually evaluated for injury. Plant response ratings, summarized in Table A, are based on a 0 to 100 scale where 0 is no effect and 100 is complete control. A dash (-) response means no test result.

foxtail, giant [2] = experiment: Test A preemergence; type: in vivo, Setaria faberi; settings: 1000 g ai/ha, 0 to 100 scale (0 no effect, 100 complete control), 10 days; for pest or weed control at 1000 g/ha: Setaria faberi, pre-emergence, 240 h, read-out: Plant response rating, Foxtail, Giant
Text: as §1

goosegrass [3] = experiment: Test A preemergence; type: in vivo, Eleusine indica; settings: 1000 g ai/ha, 0 to 100 scale (0 no effect, 100 complete control), 10 days; for pest or weed control at 1000 g/ha: Eleusine indica, pre-emergence, 240 h, read-out: Plant response rating, Goosegrass
Text: as §1

kochia [4] = experiment: Test A preemergence; type: in vivo, Bassia scoparia; settings: 1000 g ai/ha, 0 to 100 scale (0 no effect, 100 complete control), 10 days; for pest or weed control at 1000 g/ha: Bassia scoparia, pre-emergence, 240 h, read-out: Plant response rating, Kochia
Text: as §1

pigweed, palmer [5] = experiment: Test A preemergence; type: in vivo, Amaranthus palmeri; settings: 1000 g ai/ha, 0 to 100 scale (0 no effect, 100 complete control), 10 days; for pest or weed control at 1000 g/ha: Amaranthus palmeri, pre-emergence, 240 h, read-out: Plant response rating, Pigweed, Palmer
Text: as §1

ragweed [6] = experiment: Test A preemergence; type: in vivo, Ambrosia artemisiifolia; settings: 1000 g ai/ha, 0 to 100 scale (0 no effect, 100 complete control), 10 days; for pest or weed control at 1000 g/ha: Ambrosia artemisiifolia, pre-emergence, 240 h, read-out: Plant response rating, Ragweed
Text: as §1

ryegrass, Italian [7] = experiment: Test A preemergence; type: in vivo, Lolium multiflorum; settings: 1000 g ai/ha, 0 to 100 scale (0 no effect, 100 complete control), 10 days; for pest or weed control at 1000 g/ha: Lolium multiflorum, pre-emergence, 240 h, read-out: Plant response rating, Ryegrass, Italian
Text: as §1

blackgrass [8] = experiment: Test A postemergence; type: in vivo, Alopecurus myosuroides; settings: 1000 g ai/ha, Postemergence, 0 to 100 scale; for pest or weed control at 1000 g/ha: Alopecurus myosuroides, post-emergence, 240 h, read-out: Plant response rating, Blackgrass
Text: as §1

foxtail, giant [9] = experiment: Test A postemergence; type: in vivo, Setaria faberi; settings: 1000 g ai/ha, Postemergence, 0 to 100 scale; for pest or weed control at 1000 g/ha: Setaria faberi, post-emergence, 240 h, read-out: Plant response rating, Foxtail, Giant
Text: as §1

goosegrass [10] = experiment: Test A postemergence; type: in vivo, Eleusine indica; settings: 1000 g ai/ha, Postemergence, 0 to 100 scale; for pest or weed control at 1000 g/ha: Eleusine indica, post-emergence, 240 h, read-out: Plant response rating, Goosegrass
Text: as §1

kochia [11] = experiment: Test A postemergence; type: in vivo, Bassia scoparia; settings: 1000 g ai/ha, Postemergence, 0 to 100 scale; for pest or weed control at 1000 g/ha: Bassia scoparia, post-emergence, 240 h, read-out: Plant response rating, Kochia
Text: as §1

pigweed, palmer [12] = experiment: Test A postemergence; type: in vivo, Amaranthus palmeri; settings: 1000 g ai/ha, Postemergence, 0 to 100 scale; for pest or weed control at 1000 g/ha: Amaranthus palmeri, post-emergence, 240 h, read-out: Plant response rating, Pigweed, Palmer
Text: as §1

ragweed [13] = experiment: Test A postemergence; type: in vivo, Ambrosia artemisiifolia; settings: 1000 g ai/ha, Postemergence, 0 to 100 scale; for pest or weed control at 1000 g/ha: Ambrosia artemisiifolia, post-emergence, 240 h, read-out: Plant response rating, Ragweed
Text: as §1

ryegrass, Italian [14] = experiment: Test A postemergence; type: in vivo, Lolium multiflorum; settings: 1000 g ai/ha, Postemergence, 0 to 100 scale; for pest or weed control at 1000 g/ha: Lolium multiflorum, post-emergence, 240 h, read-out: Plant response rating, Ryegrass, Italian
Text: as §1

galium = experiment: Test A postemergence; type: in vivo, Galium aparine; settings: 1000 g ai/ha, Postemergence, 0 to 100 scale; for pest or weed control at 1000 g/ha: Galium, post-emergence, 240 h, read-out: Plant response rating, Galium
Text: as §1

horseweed = experiment: Test A postemergence; type: in vivo, Erigeron canadensis; settings: 1000 g ai/ha, Postemergence, 0 to 100 scale; for pest or weed control at 1000 g/ha: Erigeron canadensis, post-emergence, 240 h, read-out: Plant response rating, Horseweed
Text: as §1

barnyardgrass = experiment: Test B flooded paddy test; type: in vivo, Echinochloa crus-galli; settings: 250 g ai/ha, Flood, 13 days, 0 to 100 scale (0 no effect, 100 complete control); for pest or weed control at 250 g/ha: Echinochloa crus-galli, 312 h, read-out: Plant response rating, Barnyardgrass
Description: (§2) Plant species in the flooded paddy test selected from barnyardgrass (Echinochloa crus-galli), ducksalad (Heteranthera limosa), rice (Oryza sativa), and sedge, umbrella (small-flower umbrella sedge, Cyperus difformis) were grown to the 2-leaf stage for testing. At time of treatment, test pots were flooded to 3 cm above the soil surface, treated by application of test compounds directly to the paddy water, and then maintained at that water depth for the duration of the test. Treated plants and controls were maintained in a greenhouse for 13 days, after which time all species were compared to controls and visually evaluated. Plant response ratings, summarized in Table B, are based on a scale of 0 to 100 where 0 is no effect and 100 is complete control. A dash (-) response means no test result.

ducksalad = experiment: Test B flooded paddy test; type: in vivo, Heteranthera limosa; settings: 250 g ai/ha, Flood, 13 days, 0 to 100 scale (0 no effect, 100 complete control); for pest or weed control at 250 g/ha: Heteranthera limosa, 312 h, read-out: Plant response rating, Ducksalad
Description: as §2

rice = experiment: Test B flooded paddy test; type: in vivo, Oryza sativa; settings: 250 g ai/ha, Flood, 13 days, 0 to 100 scale (0 no effect, 100 complete control); for plant injury at 250 g/ha: Oryza sativa, 312 h, read-out: Plant response rating, Rice
Description: as §2

sedge, umbrella = experiment: Test B flooded paddy test; type: in vivo, Cyperus difformis; settings: 250 g ai/ha, Flood, 13 days, 0 to 100 scale (0 no effect, 100 complete control); for pest or weed control at 250 g/ha: Cyperus difformis, 312 h, read-out: Plant response rating, Sedge, Umbrella
Description: as §2

Compound	pest or weed control at 1000 g/ha (blackgrass [1])	pest or weed control at 1000 g/ha (foxtail, giant [2])	pest or weed control at 1000 g/ha (goosegrass [3])	pest or weed control at 1000 g/ha (kochia [4])	pest or weed control at 1000 g/ha (pigweed, palmer [5])	pest or weed control at 1000 g/ha (ragweed [6])	pest or weed control at 1000 g/ha (ryegrass, Italian [7])	pest or weed control at 1000 g/ha (blackgrass [8])	pest or weed control at 1000 g/ha (foxtail, giant [9])	pest or weed control at 1000 g/ha (goosegrass [10])	pest or weed control at 1000 g/ha (kochia [11])	pest or weed control at 1000 g/ha (pigweed, palmer [12])	pest or weed control at 1000 g/ha (ragweed [13])	pest or weed control at 1000 g/ha (ryegrass, Italian [14])	pest or weed control at 1000 g/ha (galium)	pest or weed control at 1000 g/ha (horseweed)	pest or weed control at 250 g/ha (barnyardgrass)	pest or weed control at 250 g/ha (ducksalad)	plant injury at 250 g/ha (rice)	pest or weed control at 250 g/ha (sedge, umbrella)	further results
COCC1CN(C(=O)c2ccnc(-n3cncn3)c2)c2cccc(Cl)c2O1 (stereo not shown) [Compound 35, [8-Chloro-2,3-dihydro-2-(methoxymethyl)-4H-1,4-benzoxazin-4-yl][2-(1H-1,2,4-triazol-1-yl)-4-pyridinyl]methanone]	70%	100%	90%	50%	90%	20%	90%	60%	90%	50%	50%	50%	50%	80%	80%	20%	0%	30%	0%	40%	–
Cc1cc(C(=O)N2CC(C)Oc3c(Cl)cccc32)cc(-n2cncn2)c1 (stereo not shown) [Compound 32]	–	–	–	–	–	–	–	–	–	–	–	–	–	–	–	–	–	–	–	–	Plant response rating, Blackgrass (blackgrass [1]): 80; Plant response rating, Foxtail, Giant (foxtail, giant [2]): 100; Plant response rating, Goosegrass (goosegrass [3]): 100; Plant response rating, Kochia (kochia [4]): 30; Plant response rating, Pigweed, Palmer (pigweed, palmer [5]): 90; Plant response rating, Ragweed (ragweed [6]): 0; Plant response rating, Ryegrass, Italian (ryegrass, Italian [7]): 100; Plant response rating, Blackgrass (blackgrass [8]): 80; Plant response rating, Foxtail, Giant (foxtail, giant [9]): 100; Plant response rating, Goosegrass (goosegrass [10]): 80; Plant response rating, Kochia (kochia [11]): 60; Plant response rating, Pigweed, Palmer (pigweed, palmer [12]): 70; Plant response rating, Ragweed (ragweed [13]): 20; Plant response rating, Ryegrass, Italian (ryegrass, Italian [14]): 90; Plant response rating, Galium (galium): 100; Plant response rating, Horseweed (horseweed): 0; Plant response rating, Barnyardgrass (barnyardgrass): 0; Plant response rating, Ducksalad (ducksalad): 0; Plant response rating, Rice (rice): 0; Plant response rating, Sedge, Umbrella (sedge, umbrella): 0
C[C@H]1CN(C(=O)c2cccc(-c3cnn(C)c3)c2)c2cccc(Cl)c2O1 [Compound 119, [(2S)-8-Chloro-2,3-dihydro-2-methyl-4H-1,4-benzoxazin-4-yl][3-(1-methyl-1H-pyrazol-4-yl)phenyl]methanone]	70%	100%	90%	10%	90%	90%	50%	70%	90%	70%	90%	80%	70%	20%	90%	0%	0%	0%	0%	0%	–
Cc1cccc2c1O[C@H](C(F)(F)F)CN2C(=O)c1cccc(-n2cncn2)c1 (single isomer, unassigned) [Compound 58]	40%	80%	90%	20%	80%	0%	90%	20%	30%	20%	60%	20%	10%	30%	60%	0%	0%	0%	0%	0%	–
Cc1ccc(-n2cncn2)cc1C(=O)N1CC(C)Oc2c(Cl)cccc21 (stereo not shown) [Compound 33]	–	–	–	–	–	–	–	–	–	–	–	–	–	–	–	–	–	–	–	–	Plant response rating, Blackgrass (blackgrass [1]): 100; Plant response rating, Foxtail, Giant (foxtail, giant [2]): 100; Plant response rating, Goosegrass (goosegrass [3]): 100; Plant response rating, Kochia (kochia [4]): 70; Plant response rating, Pigweed, Palmer (pigweed, palmer [5]): 100; Plant response rating, Ragweed (ragweed [6]): 100; Plant response rating, Ryegrass, Italian (ryegrass, Italian [7]): 100; Plant response rating, Blackgrass (blackgrass [8]): 90; Plant response rating, Foxtail, Giant (foxtail, giant [9]): 100; Plant response rating, Goosegrass (goosegrass [10]): 90; Plant response rating, Kochia (kochia [11]): 70; Plant response rating, Pigweed, Palmer (pigweed, palmer [12]): 100; Plant response rating, Ragweed (ragweed [13]): 80; Plant response rating, Ryegrass, Italian (ryegrass, Italian [14]): 100; Plant response rating, Galium (galium): 100; Plant response rating, Horseweed (horseweed): 30; Plant response rating, Barnyardgrass (barnyardgrass): 30; Plant response rating, Ducksalad (ducksalad): 30; Plant response rating, Rice (rice): 0; Plant response rating, Sedge, Umbrella (sedge, umbrella): 65
